Reference: patent US20240025862A1, “SUBSTITUTED N-PHENYLURACILS AND SALTS THEREOF, AND USE THEREOF AS HERBICIDAL ACTIVE SUBSTANCES” (Bayer Aktiengesellschaft, priority 2020, published 2024)

Tests used:
Assay type in all cases: in vivo
[1] = system: Abutilon theophrasti (ABUTH); experiment: Post-emergence herbicidal action, greenhouse pot test; conditions: rated visually after about 3 weeks vs untreated controls, 100% = plants have died
Outline: (§1)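 Greenhouse-grown weeds in sandy loam were sprayed post-emergence at the one-leaf stage, 2–3 weeks after sowing. Compounds were formulated as WP or EC in water with 0.5% additive at 600 l/ha, at rates of 20 g/ha or less. Visual rating after about 3 weeks used a scale from 0% (like untreated control) to 100% (plants dead).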

[2] = system: Amaranthus retroflexus (AMARE); experiment: as above; conditions: rated visually after about 3 weeks vs untreated controls, 100% = plants have died
Outline: as §1

Avena fatua (AVEFA) = experiment: as above; conditions: rated visually after about 3 weeks vs untreated controls, 100% = plants have died
Outline: as §1

Lolium rigidum (LOLRI) = experiment: as above; conditions: dosage 20 g/ha
Outline: as §1

[3] = system: Pharbitis purpurea (PHBPU); experiment: as above
Outline: as §1

[4] = system: Polygonum convolvulus (POLCO); experiment: as above
Outline: as §1

Veronica persica (VERPE) = experiment: as above
Outline: as §1

Viola tricolor (VIOTR) = experiment: as above
Outline: as §1

[5] = system: Alopecurus myosuroides (ALOMY); experiment: Post-emergence herbicidal action, greenhouse pot test (also comparative test C); conditions: rated visually after about 3 weeks vs untreated controls, 100% = plants have died
Outline: (§2)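 Visual rating against untreated controls, about 3 weeks after spraying, from 0% (like control) to 100% (plants dead). Weeds were treated at the one-leaf stage, 2–3 weeks after sowing in sandy loam, with aqueous WP/EC spray containing 0.5% additive at 600 l/ha. Doses were ≤20 g/ha, or ≤5 g/ha for comparative test C.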

[6] = system: Echinochloa crus-galli (ECHCG); experiment: as above; conditions: for Post-emergence action at 1.25 g/ha against ECHCG in %: rated visually after about 3 weeks vs untreated controls, 100% = plants have died
Outline: as §2

[7] = system: Matricaria inodora (MATIN); experiment: as above
Outline: as §2

Setaria viridis (SETVI) = experiment: as above; conditions: for Post-emergence action against SETVI: 20 g/ha
Outline: as §2

Zea mays (ZEAMX) = experiment: Post-emergence crop plant compatibility, greenhouse pot test; conditions: 1.25 g/ha, vs untreated controls
Outline: (§3)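 Percent crop injury was judged by eye roughly three weeks after treatment, relative to untreated plants, where 100% meant death. Application was a post-emergence spray at the one-leaf stage, 600 l/ha water volume with 0.5% additive; letters a, b, c denote differing dose rates.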

Oryza sativa (ORYSA) = experiment: Post-emergence crop plant compatibility, greenhouse pot test (also comparative test C); conditions: for Post-emergence action against ORYSA (crop plant compatibility): vs untreated controls
Outline: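 Rice and other crops sprayed post-emergence at one-leaf stage (2–3 weeks after sowing) with WP or EC formulations plus 0.5% additive at 600 l/ha water. Visual rating about 3 weeks later versus untreated controls (100% = dead, 0% = like control); suffixes a–c denote different doses.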

[8] = system: Triticum aestivum (TRZAS); experiment: Post-emergence crop plant compatibility, greenhouse pot test; conditions: vs untreated controls
Outline: as §3

Row | Structure (SMILES) | Post-emergence action at 1.25 g/ha against ABUTH in % [1] [%] | Post-emergence action at 5 g/ha against ABUTH in % [1] [%] | Post-emergence action at 20 g/ha against ABUTH in % [1] [%] | Post-emergence action at 1.25 g/ha against AMARE in % [2] [%] | Post-emergence action at 5 g/ha against AMARE in % [2] [%] | Post-emergence action at 20 g/ha against AMARE in % [2] [%] | Post-emergence action at 20 g/ha against AVEFA in % (Avena fatua (AVEFA)) [%] | Post-emergence action against LOLRI in % (Lolium rigidum (LOLRI)) [%] | Post-emergence action against PHBPU in % ([3]; dosage 1.25 g/ha) [%] | Post-emergence action against PHBPU in % ([3]; dosage 5 g/ha) [%] | Post-emergence action against PHBPU in % ([3]; dosage 20 g/ha) [%] | Post-emergence action against POLCO in % ([4]; dosage 5 g/ha) [%] | Post-emergence action against POLCO in % ([4]; dosage 20 g/ha) [%] | Post-emergence action against VERPE (Veronica persica (VERPE); 1.25 g/ha) [%] | Post-emergence action against VERPE (Veronica persica (VERPE); 5 g/ha) [%] | Post-emergence action against VERPE (Veronica persica (VERPE); 20 g/ha) [%] | Post-emergence action against VIOTR (Viola tricolor (VIOTR); 1.25 g/ha) [%] | Post-emergence action against VIOTR (Viola tricolor (VIOTR); 5 g/ha) [%] | Post-emergence action against VIOTR (Viola tricolor (VIOTR); 20 g/ha) [%] | Post-emergence action at 5 g/ha against ALOMY in % [5] [%] | other results
1 | Cn1c(C(F)(F)F)cc(=O)n(-c2cc(Oc3ccccc3OCC(=O)OCc3ccncc3)c(Cl)cc2F)c1=O [I.7-278] | 100 | 100 | 100 | 100 | 100 | 100 | 80 | 80 | 100 | 100 | 100 | 80 | 100 | 100 | 100 | 100 | 90 | 100 | 100 | 90 | Post-emergence action at 20 g/ha against ALOMY in % [5]: 100%; Post-emergence action at 1.25 g/ha against ECHCG in % [6]: 80%; Post-emergence action against ECHCG in % ([6]; dosage 5 g/ha): 100%; Post-emergence action against ECHCG in % ([6]; dosage 20 g/ha): 100%; Post-emergence action against MATIN in % ([7]; dosage 5 g/ha): 80%; Post-emergence action against MATIN in % ([7]; dosage 20 g/ha): 100%; Post-emergence action against SETVI (Setaria viridis (SETVI)): 100%; Post-emergence action against SETVI in % (Setaria viridis (SETVI); dosage 1.25 g/ha): 100%; Post-emergence action against SETVI in % (Setaria viridis (SETVI); dosage 5 g/ha): 100%; Post-emergence action against ZEAMX (crop plant compatibility) (Zea mays (ZEAMX)): 0%; Post-emergence action against ORYSA (crop plant compatibility) (Oryza sativa (ORYSA); 1.25 g/ha): 0%
2 | Cn1c(C(F)(F)F)cc(=O)n(-c2cc(Oc3ccccc3OCC(=O)OCc3cccnn3)c(Br)cc2F)c1=O [I.8-291] | 100 | 100 | 100 | 100 | 100 | 100 | 90 | 80 | 100 | 100 | 100 | 100 | 100 | 100 | 100 | 100 | 100 | 100 | 100 | 90 | Post-emergence action at 1.25 g/ha against ALOMY in % [5]: 80%; Post-emergence action at 20 g/ha against ALOMY in % [5]: 100%; Post-emergence action at 1.25 g/ha against ECHCG in % [6]: 100%; Post-emergence action against ECHCG in % ([6]; dosage 5 g/ha): 100%; Post-emergence action against ECHCG in % ([6]; dosage 20 g/ha): 100%; Post-emergence action against MATIN in % ([7]; dosage 20 g/ha): 100%; Post-emergence action against SETVI (Setaria viridis (SETVI)): 100%; Post-emergence action against SETVI in % (Setaria viridis (SETVI); dosage 1.25 g/ha): 100%; Post-emergence action against SETVI in % (Setaria viridis (SETVI); dosage 5 g/ha): 100%; Post-emergence action against TRZAS (crop plant compatibility) ([8]; 1.25 g/ha): 10%; Post-emergence action against TRZAS (crop plant compatibility) ([8]; 5 g/ha): 20%; Post-emergence action against ORYSA (crop plant compatibility) (Oryza sativa (ORYSA); 1.25 g/ha): 0%; Post-emergence action against ORYSA (crop plant compatibility) (Oryza sativa (ORYSA); 5 g/ha): 20%
3 | Cn1c(C(F)(F)F)cc(=O)n(-c2cc(Oc3ccccc3OCC(=O)OCc3cccnn3)c(C#N)cc2F)c1=O [I.9-291] | 100 | 100 | 100 | 100 | 100 | 100 | 80 | 90 | 100 | 100 | 100 | 90 | 100 | 100 | 100 | 100 | 100 | 100 | 100 | 90 | Post-emergence action at 5 g/ha against AVEFA in % (Avena fatua (AVEFA); 5 g/ha): 80%; Post-emergence action against POLCO in % ([4]; dosage 1.25 g/ha): 80%; Post-emergence action at 1.25 g/ha against ALOMY in % [5]: 80%; Post-emergence action at 20 g/ha against ALOMY in % [5]: 100%; Post-emergence action against ECHCG in % ([6]; dosage 5 g/ha): 90%; Post-emergence action against ECHCG in % ([6]; dosage 20 g/ha): 100%; Post-emergence action against MATIN in % ([7]; dosage 5 g/ha): 80%; Post-emergence action against MATIN in % ([7]; dosage 20 g/ha): 100%; Post-emergence action against SETVI (Setaria viridis (SETVI)): 100%; Post-emergence action against SETVI in % (Setaria viridis (SETVI); dosage 1.25 g/ha): 100%; Post-emergence action against SETVI in % (Setaria viridis (SETVI); dosage 5 g/ha): 100%; Post-emergence action against TRZAS (crop plant compatibility) ([8]; 1.25 g/ha): 20%; Post-emergence action against TRZAS (crop plant compatibility) ([8]; 5 g/ha): 20%; Post-emergence action against ORYSA (crop plant compatibility) (Oryza sativa (ORYSA); 1.25 g/ha): 0%; Post-emergence action against ORYSA (crop plant compatibility) (Oryza sativa (ORYSA); 5 g/ha): 0%; Post-emergence action against ORYSA in % (Oryza sativa (ORYSA); 20 g/ha, crop plant compatibility): 20%
